Measured values taken from paper PMC4845953 (Journal of materials chemistry. B, Materials for biology …, 2016).
Non-standard residues stand in square brackets, D forms with d. Residues, ends and D or L forms follow the SMILES beside them. *: point of attachment. d(pY) = N[C@H](Cc1ccc(OP(=O)(O)O)cc1)C(=O)O; Acetyl(2-naphthyl) = O=C(Cc1ccc2ccccc2c1)*; pY = N[C@@H](Cc1ccc(OP(=O)(O)O)cc1)C(=O)O

Key:
[1] = assay type: physicochemical; details: pH 7.4
[2] = assay type: physicochemical; details: pH 7.4; remark: listed apart in the source
[3] = tested on: HeLa cells; details: 48 h
[4] = target: proteinase K (Parengyodontium album, UniProt P06873)
[5] = assay type: physicochemical; details: pH 7.4; remark: listed apart in the source

Sequence of proteinase K (P06873 106-384): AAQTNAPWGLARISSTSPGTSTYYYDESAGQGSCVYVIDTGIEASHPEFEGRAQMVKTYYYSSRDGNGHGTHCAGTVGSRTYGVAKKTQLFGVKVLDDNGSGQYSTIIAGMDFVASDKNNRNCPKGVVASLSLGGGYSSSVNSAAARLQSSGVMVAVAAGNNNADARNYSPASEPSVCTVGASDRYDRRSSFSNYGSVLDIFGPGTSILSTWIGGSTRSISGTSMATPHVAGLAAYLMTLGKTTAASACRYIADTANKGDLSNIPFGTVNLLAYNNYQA

## NC(=O)CC[C@H](NC(=O)[C@H](CCC(N)=O)NC(=O)[C@H](CC(N)=O)NC(=O)[C@H](CC(N)=O)NC(=O)CNC(=O)[C@H](Cc1ccccc1)NC(=O)[C@H](Cc1ccccc1)NC(=O)Cc1ccc2ccccc2c1)C(=O)N[C@@H](CC(N)=O)C(=O)N[C@@H](Cc1ccc(O)cc1)C(=O)O [Precursor L-3] ({Acetyl(2-naphthyl)}-FFGNNQQNY-OH)
[1]
  ALP gel: dynamic strain sweep, Max. G′: 33 Pa
  ALP gel: dynamic strain sweep, critical strains: 13.2%
[2]
  ALP gel: TEM fiber width: about 8 ± 2 nm

## NC(=O)CC[C@@H](NC(=O)[C@@H](CCC(N)=O)NC(=O)[C@@H](CC(N)=O)NC(=O)[C@@H](CC(N)=O)NC(=O)CNC(=O)[C@@H](Cc1ccccc1)NC(=O)[C@@H](Cc1ccccc1)NC(=O)Cc1ccc2ccccc2c1)C(=O)N[C@H](CC(N)=O)C(=O)N[C@H](Cc1ccc(OP(=O)(O)O)cc1)C(=O)O [Precursor D-3P, N’ffgnnqqnyp] ({Acetyl(2-naphthyl)}-[dF][dF]G[dN][dN][dQ][dQ][dN][d(pY)]-OH)
[3]
  IC50: > 500 µM
[4]
  proteolytic stability towards proteinase K: high resistance

## NC(=O)CC[C@@H](NC(=O)[C@@H](CCC(N)=O)NC(=O)[C@@H](CC(N)=O)NC(=O)[C@@H](CC(N)=O)NC(=O)CNC(=O)[C@@H](Cc1ccccc1)NC(=O)[C@@H](Cc1ccccc1)NC(=O)Cc1ccc2ccccc2c1)C(=O)N[C@H](CC(N)=O)C(=O)N[C@H](Cc1ccc(O)cc1)C(=O)O [Precursor D-3] ({Acetyl(2-naphthyl)}-[dF][dF]G[dN][dN][dQ][dQ][dN][dY]-OH)
[1]
  ALP gel: dynamic strain sweep, Max. G′: 132 Pa
  ALP gel: dynamic strain sweep, critical strains: 7.0%

## NC(=O)CC[C@H](NC(=O)[C@H](CCC(N)=O)NC(=O)[C@H](CC(N)=O)NC(=O)[C@H](CC(N)=O)NC(=O)CNC(=O)[C@H](Cc1ccccc1)NC(=O)[C@H](Cc1ccccc1)NC(=O)Cc1ccc2ccccc2c1)C(=O)N[C@@H](CC(N)=O)C(=O)N[C@@H](Cc1ccc(OP(=O)(O)O)cc1)C(=O)O [Precursor L-3P, N’FFGNNQQNYp] ({Acetyl(2-naphthyl)}-FFGNNQQN[pY]-OH)
[3]
  IC50: 476 ± 21.4 µM
[5]
  time to hydrogel after addition of ALP: 10 min
[1]
  ALP gel: dynamic strain sweep, Max. G′: 32.8 Pa
  ALP gel: dynamic strain sweep, critical strains: 13.2%
[4]
  proteolytic stability towards proteinase K: almost completely degrade
[2]
  ALP gel: TEM fiber width: 8 ± 2 nm
